Assay results reported in patent US20250235422A1 (BiomEdit, Inc., priority 2024, published 2025).
Entries after “also recorded” stand apart in the source; their conditions may differ.

Test system: not listed separately
Assay: Light stability and hydrophobicity observed during development
Assay type: physicochemical
Details: light exposure

| SMILES | photostability |
| --- | --- |
| CC=CC=CC=CC=CC=CC(=O)O [DDPA, dodeca-2,4,6,8,10-pentaenoic acid] | photolabile; also recorded: photodecomposition leads to a loss of potency |

Target: T1, AHR (Homo sapiens, UniProt P35869)
T1 sequence (P35869 11-848): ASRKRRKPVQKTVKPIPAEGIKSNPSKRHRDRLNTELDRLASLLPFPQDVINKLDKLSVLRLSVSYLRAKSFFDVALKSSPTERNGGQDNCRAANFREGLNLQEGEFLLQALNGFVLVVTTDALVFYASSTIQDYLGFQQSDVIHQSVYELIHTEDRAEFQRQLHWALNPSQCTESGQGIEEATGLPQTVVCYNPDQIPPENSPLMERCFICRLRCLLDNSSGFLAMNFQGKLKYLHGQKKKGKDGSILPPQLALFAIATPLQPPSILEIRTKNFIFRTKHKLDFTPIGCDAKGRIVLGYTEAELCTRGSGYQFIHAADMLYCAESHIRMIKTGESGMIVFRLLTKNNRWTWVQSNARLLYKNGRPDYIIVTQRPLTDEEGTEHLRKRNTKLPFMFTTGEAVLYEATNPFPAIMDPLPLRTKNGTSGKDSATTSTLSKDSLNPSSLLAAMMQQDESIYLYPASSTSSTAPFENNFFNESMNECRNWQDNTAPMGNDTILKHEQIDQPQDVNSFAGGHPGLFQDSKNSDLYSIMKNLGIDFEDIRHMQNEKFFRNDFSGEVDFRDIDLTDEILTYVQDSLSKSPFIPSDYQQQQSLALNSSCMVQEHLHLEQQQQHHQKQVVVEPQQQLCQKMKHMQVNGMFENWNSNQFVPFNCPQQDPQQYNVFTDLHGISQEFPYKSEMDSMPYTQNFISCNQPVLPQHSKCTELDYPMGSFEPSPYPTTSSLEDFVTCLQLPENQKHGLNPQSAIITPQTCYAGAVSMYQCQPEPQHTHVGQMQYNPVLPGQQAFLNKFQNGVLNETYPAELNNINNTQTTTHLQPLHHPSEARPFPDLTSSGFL
Assay: not given
Details: AHR ligand activity; Table 1 reproduced from Barroso A et al., 2021; cited from earlier work

| SMILES | Activity |
| --- | --- |
| CCCCC/C=C\C[C@@H](O)/C=C/C=C\C/C=C\CCCC(=O)O | Agonist |
| O=C(O)c1cc(O)c2ccccc2c1O [1,4-dihydroxy-2-naphthoic acid (DHNA), 1,4-dihydroxy-2-naphthoic acid] | Agonist |
| Clc1cc2c(cc1Cl)Oc1cc(Cl)c(Cl)cc1O2 [2,3,7,8-Tetrachlorodibenzop-dioxin] | Agonist |
| COC(=O)c1csc(C(=O)c2c[nH]c3ccccc23)n1 [2-(19H-indole-39-carbonyl)-thiazole-4-carboxylic acid methyl ester] | Agonist |
| c1ccc2c(Cc3[nH]c4ccccc4c3Cc3c[nH]c4ccccc34)c[nH]c2c1 [2-(Indol-3-ylmethyl)-3,39-diindolylmethane] | Agonist |
| c1ccc2c(Cc3c[nH]c4ccccc34)c[nH]c2c1 [3,3-diindolylmethane (DIM), 3,3-diindolylmethane] | Agonist |
| Cc1ccc2cc3c(ccc4ccccc43)c3c2c1CC3 [3-Methylcholanthrene] | Agonist |
| Cc1c[nH]c2ccccc12 [3-Methylindole (Skatole), 3-Methylindole] | Partial |
| COc1ccc(-c2cc(=O)c3ccccc3o2)cc1OC [3′4′-Dimethoxyflavone] | Partial |
| COc1cc(-c2cc(=O)c3ccccc3o2)ccc1[N+](=O)[O-] [3′-methoxy-4′-nitroflavone (MNF), 3′-methoxy-4′-nitroflavone] | Antagonist |
| N[C@@H](Cc1c[nH]c2ccc(O)cc12)C(=O)O [5-hydroxytryptophan (5HTP), 5-hydroxytryptophan] | Agonist |
| O=Cc1c2c(cc3c1=Nc1ccccc1-3)=Nc1ccccc1-2 [6-Formylindolo [3,2-b] carbazole (FICZ), 6-Formylindolo [3,2-b] carbazole] | Agonist |
| Cc1cc(Cl)cc2c1oc1cc(Cl)cc(Cl)c12 [6-Methyl-1,3,8-trichlorodibenzofuran] | Partial |
| CC(C)c1cnn2c(N[C@@H]3CCc4[nH]c5ccccc5c4C3)nc(-c3cncc(F)c3)nc12 [AHR antagonist 5 (IK-775)] | Antagonist |
| O=C(O)[C@H]1O[C@@H](Oc2cc3oc(-c4ccccc4)cc(=O)c3c(O)c2O)[C@H](O)[C@@H](O)[C@@H]1O [Baicalin] | AntAgonist |
| O=c1cc(-c2ccccc2)oc2ccc3ccccc3c12 [Beta-naphthoflavone] | Agonist |
| C=CC1=C(C)/C(=C/C2=NC(=C\c3[nH]c(/C=C4\NC(=O)C(C)=C4C=C)c(C)c3CCC(=O)O)/C(CCC(=O)O)=C2C)NC1=O [Biliverdin] | Agonist |
| Cc1ccccc1N=Nc1ccc(NC(=O)c2ccnn2C)c(C)c1 [CH-223191] | AntAgonist |

| SMILES | Activity |
| --- | --- |
| Nc1c(C(=O)O)c2nc3c(C(=O)O)cccc3oc-2cc1=O [Cinnabarinic acid (CA), Cinnabarinic acid] | Agonist |
| N#CCc1c[nH]c2ccccc12 [Indole-3-acetonitrile (IAN), Indole-3-acetonitrile] | Agonist |
| O=Cc1c[nH]c2ccccc12 [Indole-3-aldehyde (I3CA), Indole-3-aldehyde] | Agonist |
| OCc1c[nH]c2ccccc12 [Indole-3-carbinol (I3C), Indole-3-carbinol] | Agonist |
| c1ccc2c(c1)N=c1cc3c(cc1-2)=Nc1ccccc1-3 [Indolo [3,2-b]carbazole (ICZ), Indolo [3,2-b]carbazole] | Agonist |
| O=S(=O)(O)Oc1c[nH]c2ccccc12 [Indoxyl-3-sulfate (I3S), Indoxyl-3-sulfate] | Agonist |
| Nc1ccccc1C(=O)C[C@H](N)C(=O)O [L-Kynurenine (Kyn), L-Kynurenine] | Agonist |
| CCCCC[C@H](O)/C=C/C=C\C=C\C=C\[C@@H](O)[C@@H](O)CCCC(=O)O [Lipoxin A4] | Agonist |
| O=Cc1c(Cc2c[nH]c3ccccc23)[nH]c2ccccc12 [Malassezin] | Agonist |
| COc1cc2c(cc1O)C[C@@H]1NCCc3cc(OC)c(O)c-2c31 [Norisoboldine] | Agonist |
| O=c1c(O)c(-c2ccc(O)c(O)c2)oc2cc(O)cc(O)c12 [Quercetin] | Partial |
| CC(C)n1cnc2c(NCCc3ccc(O)cc3)nc(-c3csc4ccccc34)nc21 [StemRegenin 1 (SR1), StemRegenin 1] | AntAgonist |
| CC1=C(CC(=O)O)c2cc(F)ccc2/C1=C\c1ccc([S+](C)[O-])cc1 (stereo not shown) [Sulindac] | Agonist |
| CC(C)c1c(O)cc(/C=C/c2ccccc2)cc1O [Tapinarof, 3,5-dihydroxy-4-isopropyl-trans-stilbene] | Agonist |
| NCCc1c[nH]c2ccccc12 [Tryptamine] | Agonist |
| O=C1c2ccccc2-n2c1nc1ccccc1c2=O [Tryptanthrin] | Agonist |
| FC(F)(F)c1ccc(Nc2nccc(-c3cccc(Cl)c3)n2)cc1 [VAF347] | Agonist |
| O=C(O)c1cc(O)c2cccc(O)c2n1 [Xanthurenic acid] | Agonist |

Same assay, conditions: cited from earlier work

| SMILES | Activity |
| --- | --- |
| O=C(O)Cc1ccccc1Nc1c(Cl)cccc1Cl [Diclofenac] | Agonist |
| c1ccc2[nH]ccc2c1 [Indole] | Agonist |

Test system: psoriasis and AD
Assay: not given
Details: humans; cited from earlier work

| SMILES | effectiveness for treatment of psoriasis and AD |
| --- | --- |
| CC(C)c1c(O)cc(/C=C/c2ccccc2)cc1O [Tapinarof, 3,5-dihydroxy-4-isopropyl-trans-stilbene] | effective |
